Source: ChEMBL document CHEMBL1909294, “Translating clinical findings into knowledge in drug safety evaluation--drug induced liver injury prediction system (DILIps)” (PLoS Comput Biol, 2011)
Where a SMILES comes first, the peptide text is derived from it. Bridges are numbered along the chain shown (N, C = ends). [ ]: non-standard residue; d: D form. The star is where a group is joined. Threoninol(2S,3R) = C[C@@H](O)[C@H](CO)N*

Tests used:
Hepatotoxicity [1] = system: Hepatotoxicity;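 on HepSE Combined Scores: combined hepatic side effect score as listed in the training data of the Drug Induced Liver Injury Prediction System (DILIps)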;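 on HepSE bilirubinemia: bilirubinemia hepatic side effect score drawn from the DILIps training data, a prediction system for drug-induced liver injury; call rule not given here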;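 on HepSE cholecystitis: Cholecystitis-related hepatic side effect score drawn from the DILIps (drug-induced liver injury prediction) training data set; call rule not given here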;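 on HepSE cholelithiasis: hepatic side effect score for cholelithiasis, drawn from the DILIps training data for predicting drug-induced liver injury; call rule not given here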;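 on HepSE jaundice: Jaundice-related hepatic side-effect score drawn from the training data of the DILIps (drug-induced liver injury prediction system); call rule not given here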; on HepSE liver disease: call rule not given here;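 on HepSE liver function tests abnormal: hepatic side effect score taken from the DILIps (drug-induced liver injury prediction system) training data, here covering abnormal liver function test findings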
Hepatotoxicity [2] = system: Hepatotoxicity; remark: listed apart in the source;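 on HepSE Combined Scores: combined hepatic side effect score as listed in the training data of the Drug Induced Liver Injury Prediction System (DILIps)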;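 on HepSE bilirubinemia: bilirubinemia hepatic side effect score drawn from the DILIps training data, a prediction system for drug-induced liver injury; call rule not given here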;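 on HepSE cholecystitis: Cholecystitis-related hepatic side effect score drawn from the DILIps (drug-induced liver injury prediction) training data set; call rule not given here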;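 on HepSE jaundice: Jaundice-related hepatic side-effect score drawn from the training data of the DILIps (drug-induced liver injury prediction system); call rule not given here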; on HepSE liver disease: call rule not given here;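 on HepSE liver function tests abnormal: hepatic side effect score taken from the DILIps (drug-induced liver injury prediction system) training data, here covering abnormal liver function test findings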
Hepatotoxicity [3] = system: Hepatotoxicity; remark: listed apart in the source;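 on HepSE Combined Scores: combined hepatic side effect score as listed in the training data of the Drug Induced Liver Injury Prediction System (DILIps)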;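 on HepSE bilirubinemia: bilirubinemia hepatic side effect score drawn from the DILIps training data, a prediction system for drug-induced liver injury; call rule not given here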;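 on HepSE cholecystitis: Cholecystitis-related hepatic side effect score drawn from the DILIps (drug-induced liver injury prediction) training data set; call rule not given here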;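 on HepSE jaundice: Jaundice-related hepatic side-effect score drawn from the training data of the DILIps (drug-induced liver injury prediction system); call rule not given here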; on HepSE liver disease: call rule not given here;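 on HepSE liver function tests abnormal: hepatic side effect score taken from the DILIps (drug-induced liver injury prediction system) training data, here covering abnormal liver function test findings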
Hepatotoxicity [4] = system: Hepatotoxicity; remark: listed apart in the source;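 on HepSE Combined Scores: combined hepatic side effect score as listed in the training data of the Drug Induced Liver Injury Prediction System (DILIps)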;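 on HepSE bilirubinemia: bilirubinemia hepatic side effect score drawn from the DILIps training data, a prediction system for drug-induced liver injury; call rule not given here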;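 on HepSE cholecystitis: Cholecystitis-related hepatic side effect score drawn from the DILIps (drug-induced liver injury prediction) training data set; call rule not given here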;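 on HepSE jaundice: Jaundice-related hepatic side-effect score drawn from the training data of the DILIps (drug-induced liver injury prediction system); call rule not given here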; on HepSE liver disease: call rule not given here;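 on HepSE liver function tests abnormal: hepatic side effect score taken from the DILIps (drug-induced liver injury prediction system) training data, here covering abnormal liver function test findings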
Hepatotoxicity [5] = system: Hepatotoxicity; remark: listed apart in the source; on HepSE liver disease: call rule not given here
Hepatotoxicity [6] = system: Hepatotoxicity; remark: listed apart in the source; on HepSE liver disease: call rule not given here
Hepatotoxicity [7] = system: Hepatotoxicity; remark: listed apart in the source
Hepatotoxicity [8] = system: Hepatotoxicity; remark: listed apart in the source
Hepatotoxicity [9] = system: Hepatotoxicity; remark: listed apart in the source
Hepatotoxicity [10] = system: Hepatotoxicity; remark: listed apart in the source
Hepatotoxicity [11] = system: Hepatotoxicity; remark: listed apart in the source
Hepatotoxicity [12] = system: Hepatotoxicity; remark: listed apart in the source
Hepatotoxicity [13] = system: Hepatotoxicity; remark: listed apart in the source
Hepatotoxicity [14] = system: Hepatotoxicity; remark: listed apart in the source

| Molecule | HepSE_bilirubinemia (Hepatotoxicity [1]) | HepSE_cholecystitis (Hepatotoxicity [2]) | HepSE_liver function tests abnormal (Hepatotoxicity [3]) | HepSE_liver disease (Hepatotoxicity [4]) | HepSE_jaundice (Hepatotoxicity [5]) | HepSE_Combined Scores (Hepatotoxicity [6]) | HepSE_cholelithiasis (Hepatotoxicity [7]) | HepSE_hepatic failure (Hepatotoxicity [8]) | HepSE_liver fatty (Hepatotoxicity [9]) | HepSE_cirrhosis (Hepatotoxicity [10]) | HepSE_hepatic necrosis (Hepatotoxicity [11]) | HepSE_hepatitis (Hepatotoxicity [12]) | HepSE_hepatomegaly (Hepatotoxicity [13]) | HepSE_elevated liver function tests (Hepatotoxicity [14]) | further results |
| --- | --- | --- | --- | --- | --- | --- | --- | --- | --- | --- | --- | --- | --- | --- | --- |
| CC[C@H]1OC(=O)[C@H](C)[C@@H](O[C@H]2C[C@@](C)(OC)[C@@H](O)[C@H](C)O2)[C@H](C)[C@@H](O[C@@H]2O[C@H](C)C[C@H](N(C)C)[C@H]2O)[C@](C)(O)C[C@@H](C)CN(C)[C@H](C)[C@@H](O)[C@]1(C)O [AZITHROMYCIN] | 0 | 0 | 1 | 0 | 1 | 5 | 0 | 1 | 0 | 0 | 1 | 1 | 0 | 0 |  |
| O=C(O)CCC(=O)O.O=C(O[C@H]1CN2CCC1CC2)N1CCc2ccccc2[C@@H]1c1ccccc1 [SOLIFENACIN SUCCINATE] | 0 | 0 | 1 | 0 | 0 | 1 | 0 | 0 | 0 | 0 | 0 | 0 | 0 | 0 |  |
| O=C1CCc2ccc(OCCCCN3CCN(c4cccc(Cl)c4Cl)CC3)cc2N1 [ARIPIPRAZOLE] | 1 | 1 | 0 | 0 | 1 | 6 | 1 | 0 | 0 | 0 | 0 | 1 | 1 | 0 |  |
| GLATIRAMER ACETATE | 0 | 1 | 0 | 0 | 0 | 5 | 1 | 0 | 0 | 1 | 0 | 1 | 1 | 0 |  |
| CC(C(=O)O)c1ccc(-c2ccccc2)c(F)c1 (stereo not drawn) [FLURBIPROFEN] | 0 | 1 | 0 | 0 | 1 | 4 | 0 | 1 | 0 | 0 | 0 | 1 | 0 | 0 |  |
| CC(C)NCC(O)COc1ccc(CCOCC2CC2)cc1 (stereo not drawn) [BETAXOLOL] |  |  |  |  |  |  |  |  |  |  |  |  |  |  | HepSE_bilirubinemia (Hepatotoxicity [1]; Liver): 0; HepSE_cholecystitis (Hepatotoxicity [2]; Liver): 0; HepSE_liver function tests abnormal (Hepatotoxicity [3]; Liver): 0; HepSE_liver disease (Hepatotoxicity [4]; Liver): 0; HepSE_jaundice (Hepatotoxicity [5]; Liver): 0; HepSE_Combined Scores (Hepatotoxicity [6]; Liver): 0; HepSE_cholelithiasis (Hepatotoxicity [7]; Liver): 0; HepSE_hepatic failure (Hepatotoxicity [8]; Liver): 0; HepSE_liver fatty (Hepatotoxicity [9]; Liver): 0; HepSE_cirrhosis (Hepatotoxicity [10]; Liver): 0; HepSE_hepatic necrosis (Hepatotoxicity [11]; Liver): 0; HepSE_hepatitis (Hepatotoxicity [12]; Liver): 0; HepSE_hepatomegaly (Hepatotoxicity [13]; Liver): 0; HepSE_elevated liver function tests (Hepatotoxicity [14]; Liver): 0 |
| CCN(CC)C(C)C(=O)c1ccccc1 (stereo not drawn) [DIETHYLPROPION] | 0 | 0 | 0 | 0 | 0 | 0 | 0 | 0 | 0 | 0 | 0 | 0 | 0 | 0 |  |
| C[C@@H](O)C(=O)O [D-LACTIC ACID] | 0 | 0 | 0 | 0 | 0 | 0 | 0 | 0 | 0 | 0 | 0 | 0 | 0 | 0 |  |
| Cl[C@H]1[C@H](Cl)[C@@H](Cl)[C@@H](Cl)[C@H](Cl)[C@H]1Cl [LINDANE] |  |  |  |  |  |  |  |  |  |  |  |  |  |  | HepSE_bilirubinemia (Hepatotoxicity [1]; Liver): 0; HepSE_cholecystitis (Hepatotoxicity [2]; Liver): 0; HepSE_liver function tests abnormal (Hepatotoxicity [3]; Liver): 0; HepSE_liver disease (Hepatotoxicity [4]; Liver): 0; HepSE_jaundice (Hepatotoxicity [5]; Liver): 0; HepSE_Combined Scores (Hepatotoxicity [6]; Liver): 0; HepSE_cholelithiasis (Hepatotoxicity [7]; Liver): 0; HepSE_hepatic failure (Hepatotoxicity [8]; Liver): 0; HepSE_liver fatty (Hepatotoxicity [9]; Liver): 0; HepSE_cirrhosis (Hepatotoxicity [10]; Liver): 0; HepSE_hepatic necrosis (Hepatotoxicity [11]; Liver): 0; HepSE_hepatitis (Hepatotoxicity [12]; Liver): 0; HepSE_hepatomegaly (Hepatotoxicity [13]; Liver): 0; HepSE_elevated liver function tests (Hepatotoxicity [14]; Liver): 0 |
| C=C1[C@H](CO)[C@@H](O)C[C@@H]1n1cnc2c(=O)[nH]c(N)nc21.O | 0 | 0 | 0 | 0 | 0 | 2 | 0 | 0 | 0 | 0 | 0 | 1 | 1 | 0 |  |
| Nc1nc(NC2CC2)c2ncn([C@H]3C=C[C@@H](CO)C3)c2n1 [ABACAVIR] | 0 | 0 | 0 | 0 | 0 | 3 | 0 | 1 | 1 | 0 | 0 | 0 | 0 | 1 |  |
| CN1CC[C@]23c4c5ccc(O)c4O[C@H]2C(=O)CC[C@H]3[C@H]1C5 [HYDROMORPHONE] | 0 | 1 | 1 | 0 | 1 | 5 | 0 | 1 | 0 | 0 | 0 | 0 | 1 | 0 |  |
| CCCNC(C)C(=O)Nc1c(C)csc1C(=O)OC (stereo not drawn) [ARTICAINE] | 0 | 0 | 0 | 0 | 0 | 0 | 0 | 0 | 0 | 0 | 0 | 0 | 0 | 0 |  |
| C=CC1=C(C(=O)O)N2C(=O)[C@@H](NC(=O)/C(=N\OCC(=O)O)c3csc(N)n3)[C@H]2SC1 [CEFIXIME] | 1 | 0 | 0 | 0 | 1 | 3 | 0 | 0 | 0 | 0 | 0 | 1 | 0 | 0 |  |
| C[C@@H](O)[C@H](CO)NC(=O)[C@@H]1CSSC[C@H](NC(=O)[C@H](N)Cc2ccccc2)C(=O)N[C@@H](Cc2ccccc2)C(=O)N[C@H](Cc2c[nH]c3ccccc23)C(=O)N[C@@H](CCCCN)C(=O)N[C@@H]([C@@H](C)O)C(=O)N1 (H-[dF]CF[dW]KTC-{Threoninol(2S,3R)}; disulfide 2-7) | 1 | 1 | 0 | 0 | 1 | 6 | 1 | 0 | 1 | 0 | 0 | 1 | 0 | 0 |  |
| Oc1c(Cl)cc(Cl)c(Cl)c1Cc1c(O)c(Cl)cc(Cl)c1Cl [HEXACHLOROPHENE] | 0 | 0 | 0 | 0 | 0 | 0 | 0 | 0 | 0 | 0 | 0 | 0 | 0 | 0 |  |
| Nc1ccn([C@H]2CC[C@@H](CO)O2)c(=O)n1 [ZALCITABINE] |  |  |  |  |  |  |  |  |  |  |  |  |  |  | HepSE_bilirubinemia (Hepatotoxicity [1]; Liver): 1; HepSE_cholecystitis (Hepatotoxicity [2]; Liver): 1; HepSE_liver function tests abnormal (Hepatotoxicity [3]; Liver): 0; HepSE_liver disease (Hepatotoxicity [4]; Liver): 0; HepSE_jaundice (Hepatotoxicity [5]; Liver): 1; HepSE_Combined Scores (Hepatotoxicity [6]; Liver): 5; HepSE_cholelithiasis (Hepatotoxicity [7]; Liver): 0; HepSE_hepatic failure (Hepatotoxicity [8]; Liver): 0; HepSE_liver fatty (Hepatotoxicity [9]; Liver): 0; HepSE_cirrhosis (Hepatotoxicity [10]; Liver): 0; HepSE_hepatic necrosis (Hepatotoxicity [11]; Liver): 0; HepSE_hepatitis (Hepatotoxicity [12]; Liver): 1; HepSE_hepatomegaly (Hepatotoxicity [13]; Liver): 1; HepSE_elevated liver function tests (Hepatotoxicity [14]; Liver): 0 |
